Measured values published in PubChem BioAssay AID248 (DTP/NCI, 2004).
Inconclusive results and toxic doses are left out.

Test system: L1210 leukemia ip in BDF1 mice, survival T/C
Assay: NCI In Vivo Anticancer Drug Screen. Data for tumor model L1210 Leukemia (intraperitoneal) in B6D2F1 (BDF1) mice
Conditions: endpoint: mean survival time, higher = longer survival
Summary of the method: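 Tumor cells were implanted, animals were treated, and survival was followed. The result divides the treated measurement by the vehicle-control measurement.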

[1] = dose: 50.0 mg/kg/injection, schedule: Q01DX001 (ip), vehicle: saline
[2] = dose: 100.0 mg/kg/injection, schedule: Q01DX001 (ip), vehicle: saline
[3] = dose: 200.0 mg/kg/injection, schedule: Q01DX001 (ip), vehicle: saline
[4] = dose: 400.0 mg/kg/injection, schedule: Q01DX001 (ip), vehicle: saline
[5] = dose: 50.0 mg/kg/injection, schedule: Q01DX009 (ip), vehicle: saline with Tween-80
[6] = dose: 100.0 mg/kg/injection, schedule: Q04DX003 (ip), vehicle: saline with Tween-80
[7] = dose: 200.0 mg/kg/injection, schedule: Q04DX003 (ip), vehicle: saline with Tween-80
[8] = dose: 400.0 mg/kg/injection, schedule: Q04DX003 (ip), vehicle: saline with Tween-80
[9] = dose: 100.0 mg/kg/injection, schedule: Q01DX009 (ip), vehicle: Klucel (hydroxypropylcellulose) (HPC)
[10] = dose: 200.0 mg/kg/injection, schedule: Q01DX009 (ip), vehicle: Klucel (hydroxypropylcellulose) (HPC)
[11] = dose: 100.0 mg/kg/injection, schedule: Q04DX002 (ip), vehicle: Klucel (hydroxypropylcellulose) (HPC)
[12] = dose: 200.0 mg/kg/injection, schedule: Q04DX002 (ip), vehicle: Klucel (hydroxypropylcellulose) (HPC)
[13] = dose: 400.0 mg/kg/injection, schedule: Q04DX002 (ip), vehicle: Klucel (hydroxypropylcellulose) (HPC)

Compound: CSc1cc(C(=O)Nc2ccc(C3=NCCN3)cc2)cc(C(=O)Nc2ccc(C3=NCCN3)cc2)c1
- T/C (dose: 2.75 mg/kg/injection, schedule: Q01DX Z (ip), vehicle: carboxymethylcellulose (CMC)): 110 % of control
- T/C (dose: 5.5 mg/kg/injection, schedule: Q01DX Z (ip), vehicle: carboxymethylcellulose (CMC)): 102 % of control
- T/C (dose: 11.0 mg/kg/injection, schedule: Q01DX Z (ip), vehicle: carboxymethylcellulose (CMC)): 96 % of control
- T/C (dose: 22.0 mg/kg/injection, schedule: Q01DX Z (ip), vehicle: carboxymethylcellulose (CMC)): 119 % of control
- T/C (dose: 31.0 mg/kg/injection, schedule: Q01DX Z (ip), vehicle: carboxymethylcellulose (CMC)): 225 % of control
- T/C (dose: 45.0 mg/kg/injection, schedule: Q01DX Z (ip), vehicle: carboxymethylcellulose (CMC)): 174 % of control
- T/C (dose: 62.0 mg/kg/injection, schedule: Q01DX Z (ip), vehicle: carboxymethylcellulose (CMC)): 242 % of control
- T/C (dose: 90.0 mg/kg/injection, schedule: Q01DX Z (ip), vehicle: carboxymethylcellulose (CMC)): 168 % of control
- T/C (dose: 125.0 mg/kg/injection, schedule: Q01DX Z (ip), vehicle: carboxymethylcellulose (CMC)): 165 % of control
- T/C (dose: 180.0 mg/kg/injection, schedule: Q01DX Z (ip), vehicle: carboxymethylcellulose (CMC)): 256 % of control
- T/C (dose: 250.0 mg/kg/injection, schedule: Q01DX Z (ip), vehicle: carboxymethylcellulose (CMC)): 157 % of control
- T/C (dose: 360.0 mg/kg/injection, schedule: Q01DX Z (ip), vehicle: carboxymethylcellulose (CMC)): 100 % of control

Compound: Nc1nc(N)c2ncn(C3CC(O)C(CO)O3)c2n1 (stereo unspecified)
- T/C [1]: 96 % of control
- T/C [2]: 110 % of control
- T/C [3]: 90 % of control
- T/C [4]: 96 % of control

Compound: O=C(/C(=N/OCc1ccccc1)c1ccccc1)c1ccccc1
- T/C [2]: 102 % of control
- T/C [3]: 102 % of control
- T/C [4]: 98 % of control

Compound: O=S1(=O)C2CCC(C2)C1Cl (stereo unspecified)
- T/C (dose: 25.0 mg/kg/injection, schedule: Q01DX009 (ip), vehicle: saline with Tween-80): 102 % of control
- T/C [5]: 101 % of control

Compound: CC1(c2ccccc2)NC(=O)NC1=O (stereo unspecified)
- T/C (dose: 100.0 mg/kg/injection, schedule: Q01DX001 (ip), vehicle: Klucel (hydroxypropylcellulose) (HPC)): 92 % of control
- T/C (dose: 200.0 mg/kg/injection, schedule: Q01DX001 (ip), vehicle: Klucel (hydroxypropylcellulose) (HPC)): 95 % of control
- T/C (dose: 400.0 mg/kg/injection, schedule: Q01DX001 (ip), vehicle: Klucel (hydroxypropylcellulose) (HPC)): 95 % of control

Compound: Cc1sc(-c2ccccc2)nc1-c1ccc(N=Cc2ccc(N(CCCl)CCCl)cc2)cc1
- T/C (dose: 100.0 mg/kg/injection, schedule: Q01DX001 (ip), vehicle: carboxymethylcellulose (CMC)): 101 % of control
- T/C (dose: 200.0 mg/kg/injection, schedule: Q01DX001 (ip), vehicle: carboxymethylcellulose (CMC)): 101 % of control
- T/C (dose: 400.0 mg/kg/injection, schedule: Q01DX001 (ip), vehicle: carboxymethylcellulose (CMC)): 106 % of control

Compound: O=C(O)CCCNCc1cc(=O)[nH]c(=O)[nH]1
- T/C (dose: 100.0 mg/kg/injection, schedule: Q04DX003 (ip), vehicle: saline): 101 % of control

Compound: CC1(C)C2(C)CC12C (stereo unspecified)
- T/C (dose: 2.5 mg/kg/injection, schedule: Q01DX009 (ip), vehicle: saline): 92 % of control
- T/C (dose: 5.0 mg/kg/injection, schedule: Q01DX009 (ip), vehicle: saline): 91 % of control
- T/C (dose: 10.0 mg/kg/injection, schedule: Q01DX009 (ip), vehicle: saline): 87 % of control

Compound: CCOC(=O)c1ccc(N(C=O)CCC(=O)CCl)cc1
- T/C (dose: 3.0 mg/kg/injection, schedule: Q01DX009 (ip), vehicle: saline): 104 % of control
- T/C (dose: 5.0 mg/kg/injection, schedule: Q01DX001 (ip), vehicle: saline): 95 % of control
- T/C (dose: 6.0 mg/kg/injection, schedule: Q01DX009 (ip), vehicle: saline): 100 % of control
- T/C (dose: 10.0 mg/kg/injection, schedule: Q01DX001 (ip), vehicle: saline): 102 % of control
- T/C (dose: 12.0 mg/kg/injection, schedule: Q01DX009 (ip), vehicle: saline): 94 % of control
- T/C (dose: 12.5 mg/kg/injection, schedule: Q01DX009 (ip), vehicle: carboxymethylcellulose (CMC)): 107 % of control
- T/C (dose: 20.0 mg/kg/injection, schedule: Q01DX001 (ip), vehicle: saline): 104 % of control
- T/C (dose: 25.0 mg/kg/injection, schedule: Q01DX009 (ip), vehicle: carboxymethylcellulose (CMC)): 107 % of control
- T/C (dose: 40.0 mg/kg/injection, schedule: Q01DX001 (ip), vehicle: saline): 106 % of control

Compound: CC(=O)NC(C(=O)O)(C(=O)O)C(C)c1c[nH]c2ccccc12 (stereo unspecified)
- T/C [6]: 95 % of control
- T/C [7]: 90 % of control
- T/C [8]: 95 % of control

Compound: O=C(NNC(=S)NC1CC2C=CC1C2)c1cccnc1 (stereo unspecified)
- T/C [9]: 111 % of control
- T/C [10]: 101 % of control

Compound: COc1cc2c(cc1O)CCCC2=O
- T/C [5]: 96 % of control
- T/C (dose: 100.0 mg/kg/injection, schedule: Q01DX009 (ip), vehicle: saline with Tween-80): 93 % of control
- T/C (dose: 200.0 mg/kg/injection, schedule: Q01DX009 (ip), vehicle: saline with Tween-80): 96 % of control

Compound: CC(=O)OC(C(C)=O)c1ccccc1 (stereo unspecified)
- T/C [1]: 101 % of control
- T/C [2]: 101 % of control
- T/C [3]: 98 % of control
- T/C [4]: 101 % of control

Compound: COc1cc(-c2cc(-c3ccccc3)c3ccccc3n2)cc(OC)c1OC
- T/C [9]: 97 % of control
- T/C [10]: 100 % of control
- T/C (dose: 400.0 mg/kg/injection, schedule: Q01DX009 (ip), vehicle: Klucel (hydroxypropylcellulose) (HPC)): 96 % of control

Compound: O=C(/C=C/c1ccccc1)Sc1ccccc1
- T/C [11]: 88 % of control
- T/C [12]: 88 % of control
- T/C [13]: 107 % of control

Compound: CC(O)C1(O)C(O)CC(OC2c3cc4c(c(O)c3[C@@H]3C[C@@]2(C)OC32C=c3cc[nH]c3=N2)C(=O)c2cccc(O)c2C4=O)OC1C (stereo partly specified)
- T/C (dose: 0.5 mg/kg/injection, schedule: Q01DX009 (ip), vehicle: saline with Tween-80): 101 % of control
- T/C (dose: 1.0 mg/kg/injection, schedule: Q01DX009 (ip), vehicle: saline with Tween-80): 101 % of control
- T/C (dose: 2.0 mg/kg/injection, schedule: Q01DX009 (ip), vehicle: saline with Tween-80): 105 % of control
- T/C (dose: 2.0 mg/kg/injection, schedule: Q01DX009 (ip), vehicle: saline): 112 % of control
- T/C (dose: 4.0 mg/kg/injection, schedule: Q01DX009 (ip), vehicle: saline with Tween-80): 110 % of control
- T/C (dose: 4.0 mg/kg/injection, schedule: Q01DX009 (ip), vehicle: saline): 109 % of control
- T/C (dose: 8.0 mg/kg/injection, schedule: Q01DX009 (ip), vehicle: saline with Tween-80): 103 % of control
- T/C (dose: 8.0 mg/kg/injection, schedule: Q01DX009 (ip), vehicle: saline): 106 % of control
- T/C (dose: 16.0 mg/kg/injection, schedule: Q01DX009 (ip), vehicle: saline): 121 % of control
- T/C (dose: 32.0 mg/kg/injection, schedule: Q01DX009 (ip), vehicle: saline): 104 % of control

Compound: CC(C)(C)C(=O)CC(=O)C(C)(C)C.CC(C)(C)C(=O)CC(=O)C(C)(C)C.CC(C)(C)C(=O)CC(=O)C(C)(C)C.[Er]
- T/C [6]: 100 % of control
- T/C [7]: 97 % of control
- T/C [8]: 94 % of control

Compound: C=C(C)COc1ccccc1
- T/C (dose: 100.0 mg/kg/injection, schedule: Q01DX005 (ip), vehicle: Klucel (hydroxypropylcellulose) (HPC)): 101 % of control
- T/C [9]: 100 % of control
- T/C [11]: 100 % of control
- T/C (dose: 200.0 mg/kg/injection, schedule: Q01DX005 (ip), vehicle: Klucel (hydroxypropylcellulose) (HPC)): 108 % of control
- T/C [10]: 102 % of control
- T/C [12]: 100 % of control
- T/C (dose: 400.0 mg/kg/injection, schedule: Q01DX005 (ip), vehicle: Klucel (hydroxypropylcellulose) (HPC)): 97 % of control
- T/C [13]: 107 % of control

Compound: O=C(c1ccccc1)C1C(=O)N(c2ccccc2)C(=O)N1c1ccccc1 (stereo unspecified)
- T/C [2]: 90 % of control
- T/C [3]: 96 % of control
- T/C [4]: 96 % of control

Compound: Cc1cc(N)c2cc(NC(=O)CCCCCCCC(=O)Nc3ccc4nc(C)cc(N)c4c3)ccc2n1
- T/C (dose: 20.0 mg/kg/injection, schedule: Q01DX Z (ip), vehicle: methylcellulose (MC)): 93 % of control
- T/C (dose: 33.0 mg/kg/injection, schedule: Q01DX Z (ip), vehicle: methylcellulose (MC)): 110 % of control
- T/C (dose: 50.0 mg/kg/injection, schedule: Q01DX Z (ip), vehicle: methylcellulose (MC)): 112 % of control
- T/C (dose: 75.0 mg/kg/injection, schedule: Q01DX Z (ip), vehicle: methylcellulose (MC)): 114 % of control
